Data published in patent publication US20080234262A1 (Wyeth, priority 2007, published 2008).

Tests used:
breast line MDA468 = assay: In vitro cell culture growth assay (MTS), MDA468; format: cell-based, human; settings: MDA468 cells, three days after drug treatment
Outline: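 MDA468 or LNCap cells received inhibitors one day after plating and were grown for three days. Viable cell density read by MTS conversion, absorbance 490 nm, expressed as percent of control growth versus vehicle-treated cells on the same plate.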

PI3K = PI3K (Homo sapiens, UniProt P42336); assay: Fluorescence polarization assay for PI3K; format: biochemical; settings: PI3Kα; read-out: PI3Kα IC50;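 also: PI3K kinase reaction on PIP2 with ATP, 30-60 min, product sensed by GST-GRP with red probe in fluorescence polarization (mP), controls without enzyme and at zero time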
prostate line LNCap = assay: In vitro cell culture growth assay (MTS), LNCap; format: cell-based, human; settings: LNCap cells, three days after drug treatment

Sequence of PI3K (P42336 whole entry): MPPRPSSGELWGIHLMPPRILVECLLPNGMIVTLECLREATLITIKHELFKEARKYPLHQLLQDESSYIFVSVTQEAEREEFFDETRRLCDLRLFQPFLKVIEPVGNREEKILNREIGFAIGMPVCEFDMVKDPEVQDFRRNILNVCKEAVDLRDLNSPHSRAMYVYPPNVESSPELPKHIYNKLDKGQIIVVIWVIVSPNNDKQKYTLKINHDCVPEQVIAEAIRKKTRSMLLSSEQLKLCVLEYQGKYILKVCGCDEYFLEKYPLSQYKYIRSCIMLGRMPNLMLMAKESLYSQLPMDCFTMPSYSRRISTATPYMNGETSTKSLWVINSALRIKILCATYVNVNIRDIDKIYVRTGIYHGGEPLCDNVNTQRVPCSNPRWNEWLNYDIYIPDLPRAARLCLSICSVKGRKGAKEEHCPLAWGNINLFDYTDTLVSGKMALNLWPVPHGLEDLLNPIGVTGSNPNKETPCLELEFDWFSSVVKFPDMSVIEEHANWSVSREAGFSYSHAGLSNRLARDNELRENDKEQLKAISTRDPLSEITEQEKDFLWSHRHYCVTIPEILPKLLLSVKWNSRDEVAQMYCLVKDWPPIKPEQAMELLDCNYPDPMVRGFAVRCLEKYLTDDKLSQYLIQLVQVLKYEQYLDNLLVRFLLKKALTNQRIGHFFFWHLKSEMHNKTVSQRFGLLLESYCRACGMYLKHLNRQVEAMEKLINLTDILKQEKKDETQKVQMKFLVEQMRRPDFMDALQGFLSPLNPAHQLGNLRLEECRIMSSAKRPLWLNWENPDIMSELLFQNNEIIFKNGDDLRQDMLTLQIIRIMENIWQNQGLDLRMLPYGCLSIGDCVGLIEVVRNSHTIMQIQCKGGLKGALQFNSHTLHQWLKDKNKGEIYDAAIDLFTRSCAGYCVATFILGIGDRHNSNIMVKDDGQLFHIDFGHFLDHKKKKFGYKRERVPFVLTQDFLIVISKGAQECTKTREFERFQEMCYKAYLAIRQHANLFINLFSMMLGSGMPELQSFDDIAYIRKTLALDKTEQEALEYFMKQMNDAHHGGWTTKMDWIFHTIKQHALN
Sequence of PI3K (P27986 whole entry partner): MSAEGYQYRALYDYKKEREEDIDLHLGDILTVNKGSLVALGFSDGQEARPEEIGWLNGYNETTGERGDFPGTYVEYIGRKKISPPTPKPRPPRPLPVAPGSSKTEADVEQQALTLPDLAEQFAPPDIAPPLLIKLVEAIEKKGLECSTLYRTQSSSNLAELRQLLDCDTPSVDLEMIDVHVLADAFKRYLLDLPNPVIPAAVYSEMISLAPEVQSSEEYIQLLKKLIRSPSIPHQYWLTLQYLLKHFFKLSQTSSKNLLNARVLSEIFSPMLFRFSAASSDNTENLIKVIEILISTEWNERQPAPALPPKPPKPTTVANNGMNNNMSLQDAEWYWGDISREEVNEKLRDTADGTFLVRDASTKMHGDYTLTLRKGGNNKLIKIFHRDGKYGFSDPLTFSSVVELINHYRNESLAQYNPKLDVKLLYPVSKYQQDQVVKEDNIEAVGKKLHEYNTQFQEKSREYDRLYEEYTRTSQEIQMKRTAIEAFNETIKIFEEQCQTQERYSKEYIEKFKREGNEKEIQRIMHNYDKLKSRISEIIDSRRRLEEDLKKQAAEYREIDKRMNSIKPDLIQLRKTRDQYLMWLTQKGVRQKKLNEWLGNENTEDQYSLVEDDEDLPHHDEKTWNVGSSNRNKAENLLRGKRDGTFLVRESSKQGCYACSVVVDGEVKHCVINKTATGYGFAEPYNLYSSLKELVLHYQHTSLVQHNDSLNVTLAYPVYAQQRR

COC(=O)Nc1ccc(-c2nc(N3CCOCC3)c3cnn(C4CCN(C(=O)c5ccccc5Cl)CC4)c3n2)cc1 [Compound 688, methyl (4-{1-[1-(2-chlorobenzoyl)piperidin-4-yl]-4-morpholin-4-yl-1H-pyrazolo[3,4-d]pyrimidin-6-yl}phenyl)carbamate]
IC50 (breast line MDA468): 750 nM | IC50 (PI3K): 778 nM | IC50 (prostate line LNCap): 250 nM

CNC(=O)Nc1ccc(-c2nc(N3CCOCC3)c3cnn(C4CCN(Cc5cccc(F)c5)CC4)c3n2)cc1 [Compound 672, 1-(4-{1-[1-(3-fluorobenzyl)piperidin-4-yl]-4-morpholin-4-yl-1H-pyrazolo[3,4-d]pyrimidin-6-yl}phenyl)-3-methylurea]
IC50 (breast line MDA468): 150 nM | IC50 (PI3K): 30 nM | IC50 (prostate line LNCap): 27 nM

S=C(Nc1cccnc1)N1CCC(n2ncc3c(N4CCOCC4)nc(-c4ccc5[nH]ccc5c4)nc32)CC1 [Compound 122, 4-[6-(1H-indol-5-yl)-4-morpholin-4-yl-1H-pyrazolo[3,4-d]pyrimidin-1-yl]-N-pyridin-3-ylpiperidine-1-carbothioamide]
IC50 (breast line MDA468; Homo sapiens, 72 h): 1300 nM | IC50 (PI3K): 132 nM | IC50 (prostate line LNCap; Homo sapiens, LNCaP, 72 h): 700 nM

COC(=O)N1CCC(n2ncc3c(N4CCOCC4)nc(-c4ccc(N/C(=N/C#N)Oc5ccccc5)cc4)nc32)CC1 [Compound 949, methyl 4-[6-(4-{[(Z)-(cyanoimino)(phenoxy)methyl]amino}phenyl)-4-morpholin-4-yl-1H-pyrazolo[3,4-d]pyrimidin-1-yl]piperidine-1-carboxylate]
IC50 (breast line MDA468; Homo sapiens, 72 h): 25000 nM | IC50 (PI3K): 1890 nM | IC50 (prostate line LNCap; Homo sapiens, LNCaP, 72 h): 9800 nM

CCNC(=O)Nc1ccc(-c2nc(N3CCOC[C@H]3C)c3cnn(C4CCN(C(=O)OCC)CC4)c3n2)cc1 [Compound 889, ethyl 4-(6-{4-[(ethylcarbamoyl)amino]phenyl}-4-[(3R)-3-methylmorpholin-4-yl]-1H-pyrazolo[3,4-d]pyrimidin-1-yl)piperidine-1-carboxylate]
IC50 (breast line MDA468; Homo sapiens, 72 h): 600 nM | IC50 (PI3K): 4360 nM | IC50 (prostate line LNCap; Homo sapiens, LNCaP, 72 h): 19 nM

Nc1ncc(-c2nc(N3CCOCC3)c3cnn(C4CCN(Cc5cccnc5)CC4)c3n2)cn1 [Compound 211]
IC50 (breast line MDA468; Homo sapiens, 72 h): 800 nM | IC50 (PI3K): 23 nM | IC50 (prostate line LNCap; Homo sapiens, LNCaP, 72 h): 170 nM

CNC(=O)Nc1ccc(-c2nc(N3CCOCC3)c3cnn(C4CCN(Cc5cccnc5Cl)CC4)c3n2)cc1 [Compound 635, 1-[4-(1-{1-[(2-chloropyridin-3-yl)methyl]piperidin-4-yl}-4-morpholin-4-yl-1H-pyrazolo[3,4-d]pyrimidin-6-yl)phenyl]-3-methylurea]
IC50 (breast line MDA468): 110 nM | IC50 (PI3K): 90 nM | IC50 (prostate line LNCap): 45 nM

CNC(=O)Nc1ccc(-c2nc(N3CCOCC3)c3cn[nH]c3n2)cc1Cl [Compound 940, 1-[2-chloro-4-(4-morpholin-4-yl-1H-pyrazolo[3,4-d]pyrimidin-6-yl)phenyl]-3-methylurea]
IC50 (breast line MDA468; Homo sapiens, 72 h): 6000 nM | IC50 (PI3K): 401 nM | IC50 (prostate line LNCap; Homo sapiens, LNCaP, 72 h): 1950 nM

CC(C)OC(=O)N1CCC(n2ncc3c(N4CCOCC4)nc(-c4ccc(NC(=O)Nc5ccccn5)cc4)nc32)CC1 [Compound 837, isopropyl 4-(4-morpholin-4-yl-6-{4-[(pyridin-2-ylcarbamoyl)amino]phenyl}-1H-pyrazolo[3,4-d]pyrimidin-1-yl)piperidine-1-carboxylate]
IC50 (breast line MDA468; Homo sapiens, 72 h): 4600 nM | IC50 (PI3K): 12000 nM | IC50 (prostate line LNCap; Homo sapiens, LNCaP, 72 h): 2500 nM

COC(=O)N1CCC(n2ncc3c(N4CCOCC4)nc(-c4ccc(NC(=O)OCCN5CCCC5)cc4)nc32)CC1 [Compound 905, methyl 4-[4-morpholin-4-yl-6-(4-{[(2-pyrrolidin-1-ylethoxy)carbonyl]amino}phenyl)-1H-pyrazolo[3,4-d]pyrimidin-1-yl]piperidine-1-carboxylate]
IC50 (breast line MDA468; Homo sapiens, 72 h): 4500 nM | IC50 (PI3K): 250 nM | IC50 (prostate line LNCap; Homo sapiens, LNCaP, 72 h): 1400 nM

CNC(=O)Nc1ccc(-c2nc(N3CCOCC3)c3cnn(C4CCN(C(=O)c5cnccc5C)CC4)c3n2)cc1 [Example 419, 1-methyl-3-[4-(1-{1-[(4-methylpyridin-3-yl)carbonyl]piperidin-4-yl}-4-morpholin-4-yl-1H-pyrazolo[3,4-d]pyrimidin-6-yl)phenyl]urea]
IC50 (breast line MDA468; Homo sapiens, 72 h): 400 nM | IC50 (PI3K): 231 nM | IC50 (prostate line LNCap; Homo sapiens, LNCaP, 72 h): 320 nM

c1ccc(CN2CCC(n3ncc4c(N5CCOCC5)nc(-c5cc6ccccc6s5)nc43)CC2)cc1 [Example 67]
IC50 (breast line MDA468; Homo sapiens, 72 h): 12000 nM | IC50 (PI3K): 2910 nM | IC50 (prostate line LNCap; Homo sapiens, LNCaP, 72 h): 10000 nM

CNC(=O)Nc1ccc(-c2nc(N3CCOCC3)c3cnn(C4CCN(CC(F)(F)F)CC4)c3n2)cc1 [Compound 714, 1-methyl-3-(4-{4-morpholin-4-yl-1-[1-(2,2,2-trifluoroethyl)piperidin-4-yl]-1H-pyrazolo[3,4-d]pyrimidin-6-yl}phenyl)urea]
IC50 (breast line MDA468): 320 nM | IC50 (PI3K): 186 nM | IC50 (prostate line LNCap): 56 nM

O=C(Nc1ccccc1)Nc1ccc(-c2nc(N3CCOCC3)c3cnn(C4CCN(CC(F)(F)F)CC4)c3n2)cc1 [Compound 789, 1-(4-{4-morpholin-4-yl-1-[1-(2,2,2-trifluoroethyl)piperidin-4-yl]-1H-pyrazolo[3,4-d]pyrimidin-6-yl}phenyl)-3-phenylurea]
IC50 (breast line MDA468; Homo sapiens, 72 h): 900 nM | IC50 (PI3K): 18 nM | IC50 (prostate line LNCap; Homo sapiens, LNCaP, 72 h): 100 nM

CNC(=O)Nc1ccc(-c2nc(N3CCOCC3)c3cnn(C4CCN(Cc5cccnc5Cl)CC4)c3n2)cc1 [Example 390, 1-[4-(1-{1-[(2-chloropyridin-3-yl)methyl]piperidin-4-yl}-4-morpholin-4-yl-1H-pyrazolo[3,4-d]pyrimidin-6-yl)phenyl]-3-methylurea]
IC50 (breast line MDA468; Homo sapiens, 72 h): 100 nM | IC50 (PI3K): 90 nM | IC50 (prostate line LNCap; Homo sapiens, LNCaP, 72 h): 45 nM

CC(C)(C)OC(=O)N1CCC[C@H](n2ncc3c(N4CCOCC4)nc(-c4ccc(N)cc4)nc32)C1 [Compound 870, tert-butyl (3S)-3-[6-(4-aminophenyl)-4-morpholin-4-yl-1H-pyrazolo[3,4-d]pyrimidin-1-yl]piperidine-1-carboxylate]
IC50 (breast line MDA468; Homo sapiens, 72 h): 26000 nM | IC50 (PI3K): 549 nM | IC50 (prostate line LNCap; Homo sapiens, LNCaP, 72 h): 7600 nM

c1ccc(-n2ncc3c(N4CCOCC4)nc(-c4cc5ccccc5[nH]4)nc32)cc1 [Compound 111, 6-(1H-indol-2-yl)-4-morpholin-4-yl-1-phenyl-1H-pyrazolo[3,4-d]pyrimidine]
IC50 (breast line MDA468; Homo sapiens, 72 h): 23000 nM | IC50 (PI3K): 1010 nM | IC50 (prostate line LNCap; Homo sapiens, LNCaP, 72 h): 12000 nM

COC(=O)N1CCC(n2ncc3c(N4CCOC(C)C4)nc(-c4ccc(NC(=O)NCCF)cc4)nc32)CC1 (stereo not drawn) [Compound 844, methyl 4-[6-(4-{[(2-fluoroethyl)carbamoyl]amino}phenyl)-4-(2-methylmorpholin-4-yl)-1H-pyrazolo[3,4-d]pyrimidin-1-yl]piperidine-1-carboxylate]
IC50 (breast line MDA468; Homo sapiens, 72 h): 700 nM | IC50 (PI3K): 896 nM | IC50 (prostate line LNCap; Homo sapiens, LNCaP, 72 h): 59 nM

COc1cccc(C(=O)N2CCC(n3ncc4c(N5CCOCC5)nc(-c5ccc6[nH]ccc6c5)nc43)CC2)c1 [Example 48]
IC50 (breast line MDA468; Homo sapiens, 72 h): 2300 nM | IC50 (PI3K): 780 nM | IC50 (prostate line LNCap; Homo sapiens, LNCaP, 72 h): 590 nM

COC(=O)N1CCC(n2ncc3c(N4CCOCC4)nc(-c4ccc(NC(=O)Nc5ccc(CCN6CCNCC6)cc5)cc4)nc32)CC1 [Compound 916, methyl 4-{4-morpholin-4-yl-6-[4-({[4-(2-piperazin-1-ylethyl)phenyl]carbamoyl}amino)phenyl]-1H-pyrazolo[3,4-d]pyrimidin-1-yl}piperidine-1-carboxylate]
IC50 (breast line MDA468; Homo sapiens, 72 h): 110 nM | IC50 (PI3K): 20 nM | IC50 (prostate line LNCap; Homo sapiens, LNCaP, 72 h): 1.3 nM

COC(=O)Nc1ccc(-c2nc(N3CCOCC3)c3cnn(C4CCN(CC(N)=O)CC4)c3n2)cc1 [Compound 456, methyl (4-{1-[1-(2-amino-2-oxoethyl)piperidin-4-yl]-4-morpholin-4-yl-1H-pyrazolo[3,4-d]pyrimidin-6-yl}phenyl)carbamate]
IC50 (breast line MDA468; Homo sapiens, 72 h): 3200 nM | IC50 (PI3K): 1430 nM | IC50 (prostate line LNCap; Homo sapiens, LNCaP, 72 h): 1300 nM

CNC(=O)Nc1cccc(-c2nc(N3CCOCC3)c3cnn(C4CCN(Cc5ccccc5)CC4)c3n2)c1 [Compound 482, N-{3-[1-(1-benzylpiperidin-4-yl)-4-morpholin-4-yl-1H-pyrazolo[3,4-d]pyrimidin-6-yl]phenyl}-N′-methylurea]
IC50 (breast line MDA468; Homo sapiens, 72 h): 6800 nM | IC50 (PI3K): 1920 nM | IC50 (prostate line LNCap; Homo sapiens, LNCaP, 72 h): 5800 nM

CCOC(=O)N1CCC(n2ncc3c(N4CCOCC4)nc(-c4ccc(NC(=O)NCCO)cc4)nc32)CC1 [Compound 818, ethyl 4-[6-(4-{[(2-hydroxyethyl)carbamoyl]amino}phenyl)-4-morpholin-4-yl-1H-pyrazolo[3,4-d]pyrimidin-1-yl]piperidine-1-carboxylate]
IC50 (breast line MDA468; Homo sapiens, 72 h): 250 nM | IC50 (PI3K): 445 nM | IC50 (prostate line LNCap; Homo sapiens, LNCaP, 72 h): 320 nM

O=C(Cc1ccccc1)N1CCC(n2ncc3c(N4CCOCC4)nc(-c4ccc5[nH]ccc5c4)nc32)CC1 [Compound 492, 6-(1H-indol-5-yl)-4-morpholin-4-yl-1-[1-(phenylacetyl)piperidin-4-yl]-1H-pyrazolo[3,4-d]pyrimidine]
IC50 (breast line MDA468; Homo sapiens, 72 h): 3000 nM | IC50 (PI3K): 692 nM | IC50 (prostate line LNCap; Homo sapiens, LNCaP, 72 h): 700 nM

c1cc(CN2CCC(n3ncc4c(N5CCOCC5)nc(-c5ccc6[nH]ccc6c5)nc43)CC2)ccn1 [Compound 179]
IC50 (breast line MDA468; Homo sapiens, 72 h): 1800 nM | IC50 (PI3K): 649 nM | IC50 (prostate line LNCap; Homo sapiens, LNCaP, 72 h): 600 nM

COC(=O)N1CCC(n2ncc3c(N4CCOCC4)nc(-c4ccc(NC(=O)OCCCO)cc4)nc32)CC1 [Compound 909, methyl 4-[6-(4-{[(3-hydroxypropoxy)carbonyl]amino}phenyl)-4-morpholin-4-yl-1H-pyrazolo[3,4-d]pyrimidin-1-yl]piperidine-1-carboxylate]
IC50 (breast line MDA468; Homo sapiens, 72 h): > 60000 nM | IC50 (PI3K): 7030 nM | IC50 (prostate line LNCap; Homo sapiens, LNCaP, 72 h): 1200 nM

CNC(=O)Nc1ccc(-c2nc(N3CCOCC3)c3cnn(C4CCN(Cc5cccnc5)CC4)c3n2)cc1F [Example 350, 1-(2-fluoro-4-{4-morpholin-4-yl-1-[1-(pyridin-3-ylmethyl)piperidin-4-yl]-1H-pyrazolo[3,4-d]pyrimidin-6-yl}phenyl)-3-methylurea]
IC50 (breast line MDA468; Homo sapiens, 72 h): 200 nM | IC50 (PI3K): 246 nM | IC50 (prostate line LNCap; Homo sapiens, LNCaP, 72 h): 27 nM
